These results are taken from patent US20240408222A1, “COMPOUNDS, PHARMACEUTICAL COMPOSITIONS, AND METHODS FOR THE TREATMENT, PREVENTION, OR MANAGEMENT OF HYPERPRO[…]” (VINCERX PHARMA GMBH, priority 2021, published 2024).

The nature of series [1]: in vivo. Conditions: male, rat, plasma, iv.
Description: Male rats (n=3) were given an intravenous 0.5 or 2.0 mg/kg bolus dose of test article dissolved in plasma with 1% DMSO and 2% ethanol (C30 only). Serial blood samples were collected up to 24 hours post-dose. Plasma was harvested from blood samples and stored frozen until sample analysis. Test article plasma concentrations were analyzed by LC/MS/MS.
The subject of series [2] is NCI H292. The series is described as follows: Cytotoxicity in vitro (MTT) in presence/absence of elastase. In kind it is cell-based, human. Conditions: 72 h. The protocol:
(§1) Cultivation of cells was performed according to standard procedures with the media recommended by the provider. The cells, in a total volume of 100 μL, were seeded in a 96-well plate with a white bottom (#3610). After a 24 h incubation period at 37° C. and […], the medium was exchanged by adding 90 μL fresh medium. The treatment started by adding the test compound in 10 μL of culture medium to the cells in triplicates. Concentrations ranging from 10^−5 M to 10^−13 M were chosen. Two identically treated sets of samples were prepared. One set was treated with the test compound alone, whereas to the second set the compound and 10 nM elastase was added followed by a 72 h incubation period at 37° C. and […]. The proliferation was detected using the MTT assay (ATCC). At the end of the incubation period the MTT reagent was added to all samples for 4 h. Lysis of the cells followed by addition of the detergent was done overnight. The formed dye was detected at 570 nm. The proliferation of untreated but otherwise identically handled cells was define as the 100% value.

In series [3] the test system is HT29. Described as above. Format: cell-based, human. Particulars: 72 h. The protocol:
as §1

The subject of series [4] is 786-O. Described as above. Format: cell-based, human. Conditions: 72 h. The protocol:
as §1

Series [5] concerns SUM149. Described as above. Format: cell-based. Conditions: 72 h. The protocol:
as §1

Series [6] has as its system SUM149. Nature of the series: Cytotoxicity assay (Version 2, automated, AC50) with/without neutrophil elastase. Format: cell-based. Conditions: Version 2, activity concentration at −50%. In short, it runs like this: (§2)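 Cells were treated in triplicate with compound at 10^−5 M to 10^−13 M, with or without 10 nM elastase, for 72 h at 37 °C. Viability was read by MTT at 570 nm, normalized to cell-free medium (−100%) and DMSO-treated cells (0%); AC50 at −50% from 4-parameter Hill fit.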

Series [7] relates to NCI H292. The description is as above. Format: cell-based, human. Particulars: Version 2, activity concentration at −50%. In short, it runs like this: as §2
Series [8] relates to HT29. Described as above. Format: cell-based, human. Particulars: Version 2, activity concentration at −50%. In short, it runs like this: as §2
For series [9], the system named is 786-O. The series is described as above. Format: cell-based, human. Particulars: Version 2, activity concentration at −50%. In short, it runs like this: as §2
[10] abbreviates: NCI H292, with (+) 10 nM neutrophil elastase.
The mark [11] stands for this setting: NCI H292, without (−) neutrophil elastase.
[12] abbreviates: HT29, with (+) 10 nM neutrophil elastase.
Where [13] appears, read: HT29, without (−) neutrophil elastase.
[14] abbreviates: with (+) 10 nM neutrophil elastase.
Where [15] appears, read: without (−) neutrophil elastase.
Setting [16] is: SUM149, with (+) 10 nM neutrophil elastase.
The mark [17] stands for this setting: SUM149, without (−) neutrophil elastase.
Setting [18] is: SUM149, with (+) neutrophil elastase.
Setting [19] is: NCI H292, with (+) neutrophil elastase.
The mark [20] stands for this setting: HT29, with (+) neutrophil elastase.

Where only a bound is given, the exact number is not on record here.

As for `CCCNC(=O)Nc1cccc(S(=O)(=O)Nc2cccc([C@H](CC(=O)O)NC(=O)Nc3ccc(NC(=O)NCCOCCOCCOCCC(=O)N[C@@H](CCCCNC(=O)CCOCCOCCOCCNC(=O)Nc4ccc(NC(=O)N[C@H](CC(=O)O)c5cccc(NS(=O)(=O)c6cccc(NC(=O)NCCC)c6)c5)cc4)C(=O)NCCOCCOCCOCCC(=O)N[C@@H](CC(=O)O)C(=O)N4CCC[C@H]4C(=O)N[C@H](C(=O)N=S(C)(=O)Cc4cc5nc(c4)OCCCOc4cc(F)ccc4-c4cc(ncc4F)N5)C(C)C)cc3)c2)c1` (relative stereo) [Compound 33], in series [1] (2 mg/kg), the AUC fell in the range of 50000 to 150000 ng·h/mL, the Vd is over 0.1 L/kg, the clearance lay in the range of 0.5 to 5 mL/min/kg and the half-life was 600 to 1200 min.
Regarding `CCCNC(=O)Nc1cccc(S(=O)(=O)Nc2cccc([C@@H](CC(=O)O)NC(=O)Nc3ccc(NC(=O)NCCOCCOCCOCCC(=O)N[C@@H](CC(=O)O)C(=O)N4CCC[C@H]4C(=O)N[C@H](C(=O)N=[S@](C)(=O)Cc4cc5cc(c4)O[C@H](C)CCOc4cc(F)ccc4-c4nc(ncc4F)N5)C(C)C)cc3)c2)c1` (relative stereo) [Compound 48], in [1] (0.5 mg/kg), the AUC was 1000 to 10000 ng·h/mL, the volume of distribution (Vd) was in the range of 0.03 to 0.1 L/kg, the clearance is over 5 mL/min/kg and the half-life was 6 to 60 min.
Consider `CCCNC(=O)Nc1cccc(S(=O)(=O)Nc2cccc([C@@H](CC(=O)O)NC(=O)Nc3ccc(NC(=O)NCCOCCOCCOCCC(=O)N[C@@H](CC(=O)O)C(=O)N4CCC[C@H]4C(=O)N[C@H](C(=O)N=S(C)(=O)Cc4cc5nc(c4)OCCCOc4cc(F)ccc4-c4cc(ncc4F)N5)C(C)C)cc3)c2)c1` (single isomer, unassigned) [Compound 41, disodium 1-{(2S)-2-(carboxylatomethyl)-17-[4-({[(1R)-2-carboxylato-1-{3-[({3-[(propylcarbamoyl)amino]phenyl}sulfonyl)amino]phenyl}ethyl]carbamoyl}amino)anilino]-4,17-dioxo-7,10,13-trioxa-3,16-diazaheptadecan-1-oyl}-L-prolyl-N—[(R*)—{[15,19-difluoro-3,4-dihydro-2H,11H-10,6-(azeno)-12,16-(metheno)-1,5,11,13-benzodioxadiazacyclooctadecin-8-yl]methyl}(methyl)oxido-lambda^6-sulfanylidene]-L-valinamide], for which, in [1] (2 mg/kg), the exposure (AUC) lay in the range of 1000 to 10000 ng·h/mL, the distribution volume (Vd) is over 0.1 L/kg, the clearance was 0.5 to 5 mL/min/kg and the half-life fell in the range of 600 to 1200 min.
Regarding `CCCNC(=O)Nc1cccc(S(=O)(=O)Nc2cccc([C@H](CC(=O)O)NC(=O)Nc3ccc(NC(=O)NCCOCCOCCOCCC(=O)NCCCC[C@H](NC(=O)CCOCCOCCOCCNC(=O)Nc4ccc(NC(=O)N[C@@H](CC(=O)O)c5cccc(NS(=O)(=O)c6cccc(NC(=O)NCCC)c6)c5)cc4)C(=O)NCCOCCOCCOCCC(=O)N[C@@H](CC(=O)O)C(=O)N4CCC[C@H]4C(=O)N[C@H](C(=O)N=[S@@](C)(=O)Cc4cc5cc(c4)OCCCCOc4cc(F)ccc4-c4nc(ncc4F)N5)C(C)C)cc3)c2)c1` [Compound 19], the concentration for half-maximal inhibition (IC50) in series [2] (setting [10]) is 1.1 to 10 nM; in [2] (setting [11]) it was 11 to 100 nM; in series [3] (setting [12]), at most 1 nM; in [3] (setting [13]), 11 to 100 nM; in series [4] (setting [14]), 1.1 to 10 nM; in series [4] (setting [15]), over 100 nM. The IC50 is at most 1 nM in series [5] (setting [16]) and 1.1 to 10 nM in series [5] (setting [17]). The AC50 in series [6] (setting [18]) was 100 to 1000 nM; in series [6] (setting [17]), 100 to 1000 nM; in series [7] (setting [19]) it was 11 to 100 nM; in series [7] (setting [11]) it was 100 to 1000 nM; in series [8] (setting [20]), 100 to 1000 nM; in series [8] (setting [13]), 100 to 1000 nM. Besides, the half-maximal activity concentration (AC50) in series [9] (with (+) neutrophil elastase) and in series [9] (setting [15]) was 100 to 1000 nM throughout.
`CCCNC(=O)Nc1cccc(S(=O)(=O)Nc2cccc([C@H](CC(=O)O)NC(=O)Nc3ccc(NC(=O)NCCN(C)CCN(C)CCN(C)CC(=O)N[C@@H](CC(N)=O)C(=O)N4CCC[C@H]4C(=O)N[C@H](C(=O)N=[S@@](C)(=O)Cc4cc5cc(c4)OCCCCCNc4cc(ccc4F)-c4nc(ncc4F)N5)C(C)C)cc3)c2)c1` (relative stereo) [Compound 16]: the concentration for half-maximal inhibition (IC50) in [2] (setting [10]) was at most 1 nM; in series [2] (setting [11]), 11 to 100 nM; in series [3] (setting [12]) it was at most 1 nM; in series [3] (setting [13]), over 100 nM; in series [4] (setting [14]), 1.1 to 10 nM; in [4] (setting [15]), over 100 nM. For the same compound, the IC50 in series [5] (setting [16]) fell in the range of 1.1 to 10 nM; in series [5] (setting [17]) it was 11 to 100 nM. For the same compound, the concentration at half-maximal activity (AC50) in [6] (setting [18]) was 11 to 100 nM; in series [6] (setting [17]), over 1000 nM; in [7] (setting [19]), 11 to 100 nM; in [7] (setting [11]) it was 100 to 1000 nM; in series [8] (setting [20]), at most 10 nM; in series [8] (setting [13]), over 1000 nM. For the same compound, the values for the AC50 in [9] (with (+) neutrophil elastase) and in [9] (setting [15]) were 11 to 100 nM and over 1000 nM, respectively.
Consider `CCCNC(=O)Nc1cccc(S(=O)(=O)Nc2cccc([C@@H](CC(=O)O)NC(=O)Nc3ccc(NC(=O)NCCN(C)CCN(C)CCN(C)CC(=O)N[C@@H](CC(N)=O)C(=O)N4CCC[C@H]4C(=O)N[C@H](C(=O)N=[S@](C)(=O)Cc4cc5cc(c4)OCCCCCNc4cc(ccc4F)-c4nc(ncc4F)N5)C(C)C)cc3)c2)c1` (relative stereo) [Compound 17], for which the IC50 in [2] (setting [10]) is at most 1 nM; in [2] (setting [11]), 11 to 100 nM; in series [3] (setting [12]), at most 1 nM; in [3] (setting [13]), 11 to 100 nM; in series [4] (setting [14]), 1.1 to 10 nM; in series [4] (setting [15]), over 100 nM. Moreover, the values for the IC50 in [5] (setting [16]) and in [5] (setting [17]) were 1.1 to 10 nM and 11 to 100 nM, respectively. Besides, the AC50 in series [6] (setting [18]) was at most 10 nM; in [6] (setting [17]), 100 to 1000 nM; in series [7] (setting [19]), at most 10 nM; in series [7] (setting [11]), 100 to 1000 nM; in series [8] (setting [20]) it was at most 10 nM; in series [8] (setting [13]) it was over 1000 nM. The concentration at half-maximal activity (AC50) in [9] (with (+) neutrophil elastase) is at most 10 nM; in series [9] (setting [15]), 100 to 1000 nM.
Turning to `CCCNC(=O)Nc1cccc(S(=O)(=O)Nc2cccc([C@@H](CC(=O)O)NC(=O)Nc3ccc(NC(=O)NCCOCCOCCOCCC(=O)NCCCC[C@H](NC(=O)CCOCCOCCOCCNC(=O)Nc4ccc(NC(=O)N[C@H](CC(=O)O)c5cccc(NS(=O)(=O)c6cccc(NC(=O)NCCC)c6)c5)cc4)C(=O)NCCOCCOCCOCCC(=O)N[C@@H](CC(=O)O)C(=O)N4CCC[C@H]4C(=O)N[C@H](C(=O)N=S(C)(=O)Cc4cc5cc(c4)OC(C)CCOc4cc(F)ccc4-c4nc(ncc4F)N5)C(C)C)cc3)c2)c1` (relative stereo) [Compound 30], in series [1] (0.5 mg/kg), the area under the curve (AUC) was in the range of 50000 to 150000 ng·h/mL, the distribution volume (Vd) was over 0.1 L/kg, the clearance fell in the range of 0.05 to 0.5 mL/min/kg and the half-life lay in the range of 600 to 1200 min.
